Data on 77 molecules can be found in US6534524B1, “Indazole compounds and pharmaceutical compositions for inhibiting protein kinases, and methods for their use” (Agouron Pharmaceuticals, Inc., priority 1999, dated 2003).

The experiment has as its system human umbilical vein endothelial cells (HUVEC). The experiment can be described thus: HUVEC proliferation assay (VEGF-stimulated, MTT). Type of experiment: cell-based. Particulars: Library III; HUVEC proliferation; nominal concentration of 0.5 nM; crude reaction mixtures.
By % inhibition is commonly meant the relative decrease from the control value, in per cent. With `O=C(Nc1cc(O)[nH]n1)c1ccccc1Sc1ccc2c(/C=C/c3ccccn3)n[nH]c2c1`, the “% inhibition” value is on record as −17%.

On to `COc1ccc(NC(=O)c2ccccc2Sc2ccc3c(/C=C/c4ccccn4)n[nH]c3c2)cc1OC`, for which the “% inhibition” value stood at 1%. As for `COc1ccc(Cl)cc1NC(=O)c1ccccc1Sc1ccc2c(/C=C/c3ccccn3)n[nH]c2c1`, the “% inhibition” value is recorded as −4%. As for `COc1ccc(CCNC(=O)c2ccccc2Sc2ccc3c(/C=C/c4ccccn4)n[nH]c3c2)cc1`, the figure is 10%. Regarding `O=C(Nc1cnccn1)c1ccccc1Sc1ccc2c(/C=C/c3ccccn3)n[nH]c2c1`, the “% inhibition” value is −1%. Consider `O=C(Nc1cccc2ccccc12)c1ccccc1Sc1ccc2c(/C=C/c3ccccn3)n[nH]c2c1`, for which the “% inhibition” value was −33%. For the molecule `O=C(Nc1ccc(O)c(Cl)c1)c1ccccc1Sc1ccc2c(/C=C/c3ccccn3)n[nH]c2c1`, the “% inhibition” value is reported as −19%.

Take `CCCCOc1ccc(NC(=O)c2ccccc2Sc2ccc3c(/C=C/c4ccccn4)n[nH]c3c2)cc1`: the “% inhibition” value was −6%.

For `COc1ccc(NC(=O)c2ccccc2Sc2ccc3c(/C=C/c4ccccn4)n[nH]c3c2)cc1Cl`, the “% inhibition” value is on record as 2%. As for `O=C(Nc1ccc(Cl)nn1)c1ccccc1Sc1ccc2c(/C=C/c3ccccn3)n[nH]c2c1`, the figure is −21%. As for `Cc1ccc(CNC(=O)c2ccccc2Sc2ccc3c(/C=C/c4ccccn4)n[nH]c3c2)cc1Cl`, the figure is −16%; as for `CCOC(=O)c1ccc(NC(=O)c2ccccc2Sc2ccc3c(/C=C/c4ccccn4)n[nH]c3c2)cc1`, −25%; as for `CCN(CC)c1ccc(NC(=O)c2ccccc2Sc2ccc3c(/C=C/c4ccccn4)n[nH]c3c2)cc1`, −9%. With `Cc1ccc(CO)cc1NC(=O)c1ccccc1Sc1ccc2c(/C=C/c3ccccn3)n[nH]c2c1`, the “% inhibition” value is 1%. Take `O=C(NCCc1cccc(F)c1)c1ccccc1Sc1ccc2c(/C=C/c3ccccn3)n[nH]c2c1`: the “% inhibition” value is listed as 4%. With `COc1cc(CNC(=O)c2ccccc2Sc2ccc3c(/C=C/c4ccccn4)n[nH]c3c2)cc(OC)c1`, the “% inhibition” value was determined as 37%.

For the molecule `CCCCOCCCNC(=O)c1ccccc1Sc1ccc2c(/C=C/c3ccccn3)n[nH]c2c1`, the “% inhibition” value was −12%. As for `O=C(NCCCCCCO)c1ccccc1Sc1ccc2c(/C=C/c3ccccn3)n[nH]c2c1`, the figure is −20%. As for `CC(C)=CCC/C(C)=C/CNC(=O)c1ccccc1Sc1ccc2c(/C=C/c3ccccn3)n[nH]c2c1`, the figure is −22%.

Consider `O=C(NC1Cc2ccccc2C1)c1ccccc1Sc1ccc2c(/C=C/c3ccccn3)n[nH]c2c1`, for which the “% inhibition” value was 7%. On to `O=C(Nc1cc(Cl)cc(Cl)c1)c1ccccc1Sc1ccc2c(/C=C/c3ccccn3)n[nH]c2c1`, for which the “% inhibition” value is listed as −22%.

Regarding `CC(C)c1ccc(NC(=O)c2ccccc2Sc2ccc3c(/C=C/c4ccccn4)n[nH]c3c2)cc1`, the “% inhibition” value is recorded as −12%. `O=C(NCc1ccc(F)c(F)c1)c1ccccc1Sc1ccc2c(/C=C/c3ccccn3)n[nH]c2c1`: the “% inhibition” value was found to be 0%. Consider `Cc1ccc(CNC(=O)c2ccccc2Sc2ccc3c(/C=C/c4ccccn4)n[nH]c3c2)cc1C`, for which the “% inhibition” value is −6%. As for `Cc1cccc(CNC(=O)c2ccccc2Sc2ccc3c(/C=C/c4ccccn4)n[nH]c3c2)c1C`, the figure is 13%; as for `Cc1ccc(CCNC(=O)c2ccccc2Sc2ccc3c(/C=C/c4ccccn4)n[nH]c3c2)cc1`, −1%.

With `CCc1ccc(CCNC(=O)c2ccccc2Sc2ccc3c(/C=C/c4ccccn4)n[nH]c3c2)cc1`, the “% inhibition” value was −11%. Take `O=C(NCc1ccc(F)cc1F)c1ccccc1Sc1ccc2c(/C=C/c3ccccn3)n[nH]c2c1`: the “% inhibition” value is reported as 11%. For `O=C(NCc1cc(F)ccc1F)c1ccccc1Sc1ccc2c(/C=C/c3ccccn3)n[nH]c2c1`, the “% inhibition” value was found to be 15%. As for `O=C(NCCc1ccc(F)cc1)c1ccccc1Sc1ccc2c(/C=C/c3ccccn3)n[nH]c2c1`, the figure is 3%. Regarding `CC(NC(=O)c1ccccc1Sc1ccc2c(/C=C/c3ccccn3)n[nH]c2c1)c1ccc(F)cc1` (centres unmarked), the “% inhibition” value stood at 2%.

For `CC(NC(=O)c1ccccc1Sc1ccc2c(/C=C/c3ccccn3)n[nH]c2c1)c1ccc(Cl)cc1` (centres unmarked), the “% inhibition” value is given as 14%. Turning to `O=C(Nc1ccccn1)c1ccccc1Sc1ccc2c(/C=C/c3ccccn3)n[nH]c2c1`, the “% inhibition” value is −31%. As for `O=C(Nc1cccnc1)c1ccccc1Sc1ccc2c(/C=C/c3ccccn3)n[nH]c2c1`, the figure is −2%.

Consider `Cc1oc(NC(=O)c2ccccc2Sc2ccc3c(/C=C/c4ccccn4)n[nH]c3c2)c(C#N)c1C`, for which the “% inhibition” value stood at 13%. Consider `Cc1cc(C)nc(NC(=O)c2ccccc2Sc2ccc3c(/C=C/c4ccccn4)n[nH]c3c2)c1`, for which the “% inhibition” value was 3%. As to `O=C(Nc1ccncc1)c1ccccc1Sc1ccc2c(/C=C/c3ccccn3)n[nH]c2c1`, the “% inhibition” value was found to be 6%.

In the case of `COC(=O)c1sccc1NC(=O)c1ccccc1Sc1ccc2c(/C=C/c3ccccn3)n[nH]c2c1`, the “% inhibition” value was 2%. As for `COC(=O)c1ccc(NC(=O)c2ccccc2Sc2ccc3c(/C=C/c4ccccn4)n[nH]c3c2)cc1`, the “% inhibition” value is given as −1%.

Take `COC(=O)c1ccccc1NC(=O)c1ccccc1Sc1ccc2c(/C=C/c3ccccn3)n[nH]c2c1`: the “% inhibition” value was 3%.

For the molecule `O=C(NC1CCOC1=O)c1ccccc1Sc1ccc2c(/C=C/c3ccccn3)n[nH]c2c1` (centres unmarked), the “% inhibition” value worked out at 3%. As for `O=C(Nc1ccccc1CO)c1ccccc1Sc1ccc2c(/C=C/c3ccccn3)n[nH]c2c1`, the figure is 0%; as for `CN(C)c1ccc(NC(=O)c2ccccc2Sc2ccc3c(/C=C/c4ccccn4)n[nH]c3c2)cc1`, 18%. Consider `NC(=O)c1ccccc1NC(=O)c1ccccc1Sc1ccc2c(/C=C/c3ccccn3)n[nH]c2c1`, for which the “% inhibition” value was 7%. As for `O=C(Nc1cccc(O)c1)c1ccccc1Sc1ccc2c(/C=C/c3ccccn3)n[nH]c2c1`, the figure is −6%; as for `NC(=O)c1ccc(NC(=O)c2ccccc2Sc2ccc3c(/C=C/c4ccccn4)n[nH]c3c2)cc1`, 2%. As for `O=C(Nc1cccc(CO)c1)c1ccccc1Sc1ccc2c(/C=C/c3ccccn3)n[nH]c2c1`, the “% inhibition” value is listed as 14%. As for `O=C(Nc1ccc(CCO)cc1)c1ccccc1Sc1ccc2c(/C=C/c3ccccn3)n[nH]c2c1`, the figure is 10%. As for `COc1ccc(NC(=O)c2ccccc2Sc2ccc3c(/C=C/c4ccccn4)n[nH]c3c2)cn1`, the figure is −20%; as for `O=C(Nc1ccncn1)c1ccccc1Sc1ccc2c(/C=C/c3ccccn3)n[nH]c2c1`, −10%; as for `NC(=O)c1cccc(NC(=O)c2ccccc2Sc2ccc3c(/C=C/c4ccccn4)n[nH]c3c2)c1`, 4%.

With `O=C(Nc1ccccc1CCO)c1ccccc1Sc1ccc2c(/C=C/c3ccccn3)n[nH]c2c1`, the “% inhibition” value is reported as 10%. As for `CC(=O)c1ccccc1NC(=O)c1ccccc1Sc1ccc2c(/C=C/c3ccccn3)n[nH]c2c1`, the figure is −7%; as for `COc1ccc(CCNC(=O)c2ccccc2Sc2ccc3c(/C=C/c4ccccn4)n[nH]c3c2)cc1OC`, −3%; as for `O=C(NCc1ccc(Cl)cc1)c1ccccc1Sc1ccc2c(/C=C/c3ccccn3)n[nH]c2c1`, 4%. Consider `COc1cccc(CCNC(=O)c2ccccc2Sc2ccc3c(/C=C/c4ccccn4)n[nH]c3c2)c1`, for which the “% inhibition” value is recorded as 8%. As for `COc1cccc(CNC(=O)c2ccccc2Sc2ccc3c(/C=C/c4ccccn4)n[nH]c3c2)c1OC`, the figure is 10%; as for `COc1ccc(CNC(=O)c2ccccc2Sc2ccc3c(/C=C/c4ccccn4)n[nH]c3c2)cc1OC`, 7%.

On to `CCOc1ccccc1CNC(=O)c1ccccc1Sc1ccc2c(/C=C/c3ccccn3)n[nH]c2c1`, for which the “% inhibition” value is −9%. As for `Nc1ccccc1CNC(=O)c1ccccc1Sc1ccc2c(/C=C/c3ccccn3)n[nH]c2c1`, the figure is 46%; as for `O=C(NCCc1ccccc1F)c1ccccc1Sc1ccc2c(/C=C/c3ccccn3)n[nH]c2c1`, 2%. As for `O=C(NCc1cccs1)c1ccccc1Sc1ccc2c(/C=C/c3ccccn3)n[nH]c2c1`, the figure is 23%; as for `Nc1cccc(F)c1CNC(=O)c1ccccc1Sc1ccc2c(/C=C/c3ccccn3)n[nH]c2c1`, 11%. As for `COc1cccc(OC)c1CNC(=O)c1ccccc1Sc1ccc2c(/C=C/c3ccccn3)n[nH]c2c1`, the figure is −10%. As for `CC(=O)Nc1ccc(NC(=O)c2ccccc2Sc2ccc3c(/C=C/c4ccccn4)n[nH]c3c2)cc1`, the “% inhibition” value is listed as −4%. In the case of `O=C(NCc1ccccc1Cl)c1ccccc1Sc1ccc2c(/C=C/c3ccccn3)n[nH]c2c1`, the “% inhibition” value is 7%. As for `O=C(NCCc1ccccc1Cl)c1ccccc1Sc1ccc2c(/C=C/c3ccccn3)n[nH]c2c1`, the figure is 9%. `COc1ccccc1CCNC(=O)c1ccccc1Sc1ccc2c(/C=C/c3ccccn3)n[nH]c2c1`: the “% inhibition” value worked out at 10%. For `O=C(Nc1ccc2[nH]c(=O)[nH]c2c1)c1ccccc1Sc1ccc2c(/C=C/c3ccccn3)n[nH]c2c1`, the “% inhibition” value came out at 15%.

Regarding `O=C(Nc1ccc(CO)cc1)c1ccccc1Sc1ccc2c(/C=C/c3ccccn3)n[nH]c2c1`, the “% inhibition” value is given as −18%. As for `O=C(NCCCCCO)c1ccccc1Sc1ccc2c(/C=C/c3ccccn3)n[nH]c2c1`, the figure is −2%. As for `O=C(NCc1cccc2ccccc12)c1ccccc1Sc1ccc2c(/C=C/c3ccccn3)n[nH]c2c1`, the figure is 5%; as for `Cc1cccc2sc(NC(=O)c3ccccc3Sc3ccc4c(/C=C/c5ccccn5)n[nH]c4c3)nc12`, −13%. As for `Cc1ccc2nc(NC(=O)c3ccccc3Sc3ccc4c(/C=C/c5ccccn5)n[nH]c4c3)sc2c1`, the “% inhibition” value is listed as −9%. As for `CC(=O)c1sc(NC(=O)c2ccccc2Sc2ccc3c(/C=C/c4ccccn4)n[nH]c3c2)nc1C`, the figure is −2%; as for `CC(C)(C)c1csc(NC(=O)c2ccccc2Sc2ccc3c(/C=C/c4ccccn4)n[nH]c3c2)n1`, −6%. On to `CCSc1nnc(NC(=O)c2ccccc2Sc2ccc3c(/C=C/c4ccccn4)n[nH]c3c2)s1`, for which the “% inhibition” value is on record as 17%.
